Paper PMC9251361, “Effects of LPS Composition in Escherichia coli on Antibacterial Activity and Bacterial Uptake of Antisense Peptide-PNA Conjugates” (Frontiers in Microbiology, 2022)
In brackets after ≈: the same amount, converted by molar mass.

Assays:
[1] = system: E. coli BW25113 tolR mutant (Keio collection); assay: MIC broth microdilution; assay type: cell-based; settings: Escherichia coli, BW25113, 18 h, read-out: MIC values, Carbenicillin
Experimental: (§1) All strains used in this study are listed in Supplementary Table S1. E. coli strains WD101 and WD101ΔeptAΔarnD (WD101ΔΔ) were kindly provided by Professor M. Stephen Trent (University of Georgia, USA). E. coli strains DB wild type, DB L5, and DB L9 were kindly provided by Dr. Douglas Browning (University of Birmingham, UK). Single deletion strains for envelope mutants were obtained from the Keio-collection (Baba et al., [2006]). All strains were grown in non-cation adjusted Muller Hinton broth (MHB) (Sigma, Cat. No. 70192). BPP-PNA conjugates (Table 1) were obtained as described previously (Good et al., [2001]; Ghosal et al., [2013]; Hansen et al., [2016]).
(§2) Minimum inhibitory concentration (MIC) values were determined by broth microdilution according to standard protocols adapted to peptide-based antimicrobial compounds (Goltermann and Nielsen, [2020]). Briefly, 190 μl bacterial cell culture containing ≈10^5 cfu/ml was dispensed into a 96-well plate (Thermo Scientific, Nunc Cat. No. 260896, 96F straight w/lid) along with 10 μl PNA stock solution or antibiotic. The plate was incubated in a Tecan Genios plate reader at 37°C for 18 h, and OD was measured every 20 min at 595 nm. The MIC was determined as the lowest concentration, which inhibited visible growth (OD < 0.1) in the wells. […] Experiments were performed in triplicates as a minimum.

[2] = system: E. coli BW25113 tolB mutant (Keio collection); assay: MIC broth microdilution; assay type: cell-based; settings: Escherichia coli, BW25113, 18 h, read-out: MIC values, Carbenicillin
Experimental: as §1, §2

[3] = system: E. coli BW25113 metL mutant (Keio collection); assay: MIC broth microdilution; assay type: cell-based; settings: Escherichia coli, BW25113, 18 h, read-out: MIC values, Carbenicillin
Experimental: as §1, §2

[4] = system: E. coli BW25113 mrcB mutant (Keio collection); assay: MIC broth microdilution; assay type: cell-based; settings: Escherichia coli, BW25113, 18 h, read-out: MIC values, Carbenicillin
Experimental: as §1, §2

[5] = system: E. coli BW25113 tolQ mutant (Keio collection); assay: MIC broth microdilution; assay type: cell-based; settings: Escherichia coli, BW25113, 18 h, read-out: MIC values, Carbenicillin
Experimental: as §1, §2

[6] = system: E. coli BW25113 ppiB mutant (Keio collection); assay: MIC broth microdilution; assay type: cell-based; settings: Escherichia coli, BW25113, 18 h, read-out: MIC values, Carbenicillin
Experimental: as §1, §2

[7] = system: E. coli BW25113 hydN mutant (Keio collection); assay: MIC broth microdilution; assay type: cell-based; settings: Escherichia coli, BW25113, 18 h, read-out: MIC values, Carbenicillin
Experimental: as §1, §2

[8] = system: E. coli BW25113; assay: MIC broth microdilution; assay type: cell-based; settings: Escherichia coli; Table 4; strain BW25113; MHB, 37°C, 18 h; read-out: MIC values, Carbenicillin
Experimental: as §1, §2

[9] = system: E. coli K12 MG1655; assay: microbe, parasite or virus in culture; assay type: cell-based, Escherichia coli; settings: Escherichia coli; Table 4; strain MG1655; MHB, 37°C, 18 h; read-out: MIC values, Carbenicillin
Experimental: as §1, §2

[10] = system: E. coli tolB, tolQ, and tolR mutants; assay: MIC broth microdilution, tol mutants as a group; assay type: cell-based, Escherichia coli
Experimental: as §2
The Pal-Tol-system, an envelope spanning complex involved in maintaining the outer membrane integrity, has previously been implicated in general antibiotic susceptibility, and thus was also investigated.

`CC1(C)S[C@@H]2[C@H](NC(=O)C(C(=O)O)c3ccccc3)C(=O)N2[C@H]1C(=O)O` (stereo partly shown) [Carbenicillin] gave an MIC [1] of 2 to 4 µg/mL (≈ 5.29 to 10.6 µM), an MIC [2] of no more than 2 µg/mL and an MIC [3] of 16 µg/mL (≈ 42.3 µM). It also gave an MIC [4] of 4 µg/mL (≈ 10.6 µM), an MIC [5] of no more than 2 µg/mL and an MIC [6] of 16 µg/mL (≈ 42.3 µM). For the same molecule, the MIC [7] was 16 µg/mL (≈ 42.3 µM), the MIC [8] was 8 µg/mL (≈ 21.1 µM) and the MIC [9] was 16 µg/mL (≈ 42.3 µM). The “fold increase in carbenicillin susceptibility” value [10] was “circa 8 fold”.
